# Assay results taken from ChEMBL document CHEMBL5137024, “Discovery of novel coumarin-indole derivatives as tubulin polymerization inhibitors with potent anti-gastric cancer activities” (Eur J Med Chem, 2022).
# Calls of active or inactive are those of the source. The calls are words filed in the database; no cut-off is given here.
# Assays:
# MGC-803 [1] = experiment: Induction of apoptosis in human MGC-803 cells assessed as increase in dead cells at 5 to 15 nM incubated for 48 hrs by calcein-AM dye/propidium iodide staining based analysis; type: functional, cell-based; conditions: dose 5-15 nM
# NCI-H520 = experiment: Antiproliferative activity against human NCI-H520 cells assessed as reduction in cell viability incubated for 48 hrs by MTT assay; type: functional, cell-based; conditions: NCI-H520, 48 h
# HGC-27 [2] = experiment: Downregulation of MMP-9 expression in human HGC-27 cells incubated for 48 hrs; type: functional, cell-based; conditions: dose 10-30 nM, DDE = dose-dependent effect
# HCT-116 = experiment: cells; conditions: Homo sapiens, HCT-116, 48 h
# MGC-803 [3] = experiment: Inhibition of ERK signalling pathway in human MGC-803 cells assessed as downregulation of ERK1/2 phosphorylation at 5 to 15 nM incubated for 48 hrs; type: cell-based; conditions: dose 5-15 nM
# MGC-803 [4] = experiment: Induction of apoptosis in human MGC-803 cells assessed as decrease in XIAP level; type: functional, cell-based; conditions: dose 5-15 nM, DDE = dose-dependent effect
# MGC-803 [5] = experiment: Antiproliferative activity against human MGC-803 cells assessed as reduction in cell viability at 15 to 30 nM by MTT assay; type: functional, cell-based; conditions: dose 15-30 nM, time 12-48 hrs, TDE = time-dependent effect
# HGC-27 [6] = experiment: Induction of apoptosis in human HGC-27 cells assessed as increase in Noxa level; type: functional, cell-based; conditions: dose 10-30 nM, DDE = dose-dependent effect
# HGC-27 [7] = experiment: Upregulation of phosphorylated Histone H3 expression in human HGC-27 cells at 10 to 30 nM incubated for 48 hrs; type: functional, cell-based; conditions: dose 10-30 nM
# [8] = Cytotoxicity against human GES1 cells assessed as reduction in cell viability incubated for 48 hrs by MTT assay; type: toxicity, cell-based
# HGC-27 [9] = experiment: Inhibition of colony formation in human HGC-27 cells incubated for 7 days by crystal violet staining based analysis; type: functional, cell-based; conditions: dose 3-15 nM, time 7.0 day, DDE = dose-dependent effect
# MGC-803 [10] = experiment: Downregulation of Wee1 expression in human MGC-803 cells at 5 to 15 nM incubated for 48 hrs; type: functional, cell-based; conditions: dose 5-15 nM
# HGC-27 [11] = experiment: Inhibition of ERK signalling pathway in human HGC-27 cells assessed as downregulation of c-Raf phosphorylation at 10 to 30 nM incubated for 48 hrs; type: cell-based; conditions: dose 10-30 nM
# HGC-27 [12] = experiment: Inhibition of p38 signalling pathway in human HGC-27 cells assessed as reduction in downstream substrate MAPKAPK2 phosphorylation at 10 to 30 nM incubated for 48 hrs; type: cell-based; conditions: dose 10-30 nM
# MGC-803 [13] = experiment: Upregulation of phosphorylated Histone H3 expression in human MGC-803 cells at 5 to 15 nM incubated for 48 hrs; type: functional, cell-based; conditions: dose 5-15 nM
# MGC-803 [14] = experiment: Antitumor activity against human MGC-803 cells xenografted BALB/c nude mouse assessed as tumor growth inhibition at 15 mg/kg, ip administered once daily for 21 days; type: functional; conditions: MGC-803, 504 h, time 21 day, read-out: TGI
# Mus musculus [15] = experiment: Upregulation of PARP expression in tumor tissue of BALB/c nude mouse xenografted with human MGC-803 cells at 15 to 30 mg/kg, ip administered once daily for 21 days by Western blotting analysis; type: functional, organism-based; conditions: dose 15-30 mg/kg, time 21.0 day
# HGC-27 [16] = experiment: Downregulation of cdc2 phosphorylation at Thr14 residue in human HGC-27 cells at 10 to 30 nM incubated for 48 hrs; type: functional, cell-based; conditions: dose 10-30 nM
# MGC-803 [17] = experiment: Inhibition of colony formation in human MGC-803 cells incubated for 7 days by crystal violet staining based analysis; type: functional, cell-based; conditions: dose 2-10 nM, time 7.0 day, DDE = dose-dependent effect
# MGC-803 [18] = experiment: Induction of cell cycle arrest in human MGC-803 cells assessed as accumulation of cells at G2/M phase at 15 nM incubated for 48 hrs by propidium iodide staining based flow cytometry analysis (reference value: 24%); type: functional
# HGC-27 [19] = experiment: Inhibition of p38 signalling pathway in human HGC-27 cells assessed as reduction in MKK3/6 phosphorylation at 10 to 30 nM incubated for 48 hrs; type: cell-based; conditions: dose 10-30 nM
# ECa-109 cell line = experiment: Antiproliferative activity against human EC109 cells assessed as reduction in cell viability incubated for 48 hrs by MTT assay; type: functional, cell-based; conditions: ECa-109, 48 h
# [20] = Induction of mitochondria mediated intrinsic apoptosis in human HGC-27 cells assessed as late apoptotic cells at 20 nM measured after 48 hrs by flow cytometry analysis (reference value: 93.6%); type: functional
# Mus musculus [21] = experiment: Downregulation of Ki67 expression in tumor tissue of BALB/c nude mouse xenografted with human MGC-803 cells at 15 to 30 mg/kg, ip administered once daily for 21 days by immunohistochemistry analysis; type: functional, organism-based; conditions: dose 15-30 mg/kg, time 21.0 day
# HGC-27 [22] = experiment: Inhibition of cell migration in human HGC-27 cells assessed as reduction in wound healing rate at 10 to 30 nM incubated for 24 hrs; type: functional, cell-based; conditions: dose 10-30 nM
# MGC-803 [23] = experiment: Induction of apoptosis in human MGC-803 cells assessed as decrease in cell density at 5 to 15 nM incubated for 48 hrs by bright field imaging analysis; type: functional, cell-based; conditions: dose 5-15 nM
# HGC-27 [24] = experiment: Induction of apoptosis in human HGC-27 cells assessed as nuclear fragmentation at 10 to 30 nM incubated for 48 hrs by DAPI staining based analysis; type: functional, cell-based; conditions: dose 10-30 nM
# [25] = target: c-Jun N-terminal kinase, JNK (Homo sapiens) (UniProt P45983+P53779+P45984); experiment: Inhibition of JNK signalling pathway in human HGC-27 cells assessed as reduction in JNK phosphorylation at 10 to 30 nM incubated for 48 hrs; type: cell-based; conditions: dose 10-30 nM
# PC-3 = experiment: Antiproliferative activity against human PC-3 cells assessed as reduction in cell viability incubated for 48 hrs by MTT assay; type: functional, cell-based; conditions: PC-3, 48 h
# MGC-803 [26] = experiment: Induction of apoptosis in human MGC-803 cells assessed as decrease in cIAP-1 level; type: functional, cell-based; conditions: dose 5-15 nM, DDE = dose-dependent effect
# [27] = Toxicity in BALB/c nude mouse xenografted with human MGC-803 cells assessed as pathological changes in spleen at 15 to 30 mg/kg, ip administered once daily for 21 days by Hematoxyin-eosin staining based analysis; type: organism-based; conditions: in vivo, 504 h, dose 15-30 mg/kg, time 21 day
# A549 = experiment: Antiproliferative activity against human A549 cells assessed as reduction in cell viability incubated for 48 hrs by MTT assay; type: functional, cell-based; conditions: A549, 48 h
# [28] = Induction of mitochondria mediated intrinsic apoptosis in human HGC-27 cells assessed as early apoptotic cells at 20 nM measured after 48 hrs by flow cytometry analysis (Rvb= 6.4%); type: functional
# [29] = target: Tubulin beta (Homo sapiens) (UniProt P68371+Q9H4B7+Q13509+P04350+Q3ZCM7+P07437+Q13885+Q9BVA1+Q9BUF5+A6NNZ2); experiment: Binding affinity to beta-tubulin colchicine binding site in human HGC-27 cells assessed as decrease in beta-tubulin adduct band incubated for 2 hrs by EBI alkylate competition assay; type: cell-based; conditions: dose 0.075-0.75 µM, DDE = dose-dependent effect
# [30] = Toxicity in BALB/c nude mouse xenografted with human MGC-803 cells assessed as pathological changes in lung at 15 to 30 mg/kg, ip administered once daily for 21 days by Hematoxyin-eosin staining based analysis; type: organism-based; conditions: in vivo, 504 h, dose 15-30 mg/kg, time 21 day
# MGC-803 [31] = experiment: Induction of apoptosis in human MGC-803 cells assessed as increase in Noxa level; type: functional, cell-based; conditions: dose 5-15 nM, DDE = dose-dependent effect
structure (smiles),measurement,setting,value
CN(c1ccc2c(ccn2C)c1)c1cc(=O)oc2ccccc12,Activity,MGC-803 [1],Active
same,IC50,NCI-H520,33.4 nM
same,Activity,HGC-27 [2],Dde
same,IC50,HCT-116,33 nM
same,inhibition,MGC-803 [3],Active
same,Activity,MGC-803 [4],Dde
same,Activity,MGC-803 [5],Tde
same,Activity,HGC-27 [6],Dde
same,Activity,HGC-27 [7],Active
same,IC50 at 48 h,[8],3170 nM
same,inhibition,HGC-27 [9],Dde
same,Activity,MGC-803 [10],Active
same,inhibition,HGC-27 [11],Active
same,inhibition,HGC-27 [12],Active
same,Activity,MGC-803 [13],Active
same,inhibition in vivo at 15 mg/kg,MGC-803 [14],70%
same,Activity,Mus musculus [15],Active
same,Activity,HGC-27 [16],Active
same,inhibition,MGC-803 [17],Dde
same,Activity,MGC-803 [18],53%
same,inhibition,HGC-27 [19],Active
same,IC50,ECa-109 cell line,33.8 nM
same,Activity,[20],78.3%
same,Activity,Mus musculus [21],Active
same,inhibition,HGC-27 [22],Active
same,Activity,MGC-803 [23],Active
same,Activity,HGC-27 [24],Active
same,inhibition,[25],Active
same,IC50,PC-3,34.9 nM
same,Activity,MGC-803 [26],Dde
same,Activity,[27],Non-Toxic
same,IC50,A549,59.3 nM
same,Activity,[28],21.6%
same,Activity,[29],Dde
same,Activity,[30],Non-Toxic
same,Activity,MGC-803 [31],Dde
